Read-outs that look alike come from different tables or passages of the source.
Tests used:
Type in all cases: cell-based
[1] = system: Escherichia coli 29194; assay: Antimicrobial susceptibility pattern using silicone-emulsion CO2 sensors (Table 4)
From the text: (§1) Microtiter plates (96 flat bottom wells) containing 0.05% Xylenol blue silicone-emulsion sensors on the bottom were filled with 100 microliters of microbial growth medium containing no antibiotics (growth control wells) and nine different classes of antibiotics. Final concentrations of the antibiotics were achieved after addition of 100 microliters of inoculum (final inoculum of 5×10^7 CFU/ml) of the representative microorganisms. The concentrations of antibiotics used represent those used in determining if the test organism is sensitive, intermediate, or resistant to a particular antibiotic.
(§2) After inoculating the microtiter tray, it was sealed with a pressure sensitive plastic plate sealer and initial readings were taken with a reflectance reader. The plate was then placed into a 37° C. incubator. After four hours incubation, the plate was removed and final reflectance readings were taken.
(§3) The results in Table 4 show a pattern of growth, no growth, or intermediate growth of the four test organisms with the nine classes of antibiotics. This is indicative of the type of susceptibility of the organisms to the antibiotics. The organisms tested vary in their susceptibility pattern because of differences in their physiological makeup.

[2] = system: Streptococcus faecalis 29212; assay: as above
From the text: as §1, §2, §3

[3] = system: Pseudomonas aeruginosa 27853; assay: as above
From the text: as §1, §2, §3

[4] = system: Staphylococcus aureus 25923; assay: as above
From the text: as §1, §2, §3

[5] = system: Escherichia coli (ATCC number 11775); assay: Carbon source utilization in carbon dioxide sensor plates (Example 6); conditions: 0.5% bromosuccinic acid
Experimental: (§4) 50 ml Kodak Universal Indicator was evaporated to dryness and resuspended in 2 ml HPCL grade isopropanol. 240 mg of phenolphthalein, sodium salt, dissolved in 2 ml of water was added to 1 ml of the concentrated Universal Indicator solution. 150 microliters of CAPS buffer (3-{cyclohexlamino}-1-propanesulfonic acid), pH 10.4, 500 mM was mixed with the phenolphthalein/Universal Indicator solution. This solution was added to 10 grams of GE RTV 615 A silicone that had been degassed for approximately 15 minutes. The silicone and indicator emulsion was mixed by hand stirring. 0.1 grams of white silicone pigment and 2 grams of GE RTV 615 B was added to the mixture. The mixture was hand mixed and degassed for approximately 5 minutes. The emulsion was transferred into a pressurized syringe dispenser fitted to an "air brush" sprayer and sprayed into a polystyrene 24 well plate that had previously been sprayed with 2 coats of GE silicone primer SS 4120. Enough of the indicator/silicone emulsion was sprayed into the wells to coat the bottom surface. The plate was then placed in a humidified oven and cured at 50° C. overnight. This spraying process was repeated on 3 consecutive days for a total of 3 coatings to the wells.
(§5) Two organisms, Escherichia coli (ATCC number 11775) and Pseudomonas aeruginosa (ATCC number 1014), both type strains, were grown overnight (17 hours) in a complex medium as described in Example 3 C, at 37° C., with shaking. The organisms were harvested, spun down at 11950-X-g, at 4° C. for 20 minutes. The supernatant was poured off and the organisms were resuspended in 0.9% sterile saline to an OD600 =5.0.
(§6) Each well of the prepared microtiter plate contained 1 ml of one of the following three media:
(§7) a) a minimal medium buffered with 50 mM Hepes buffer, pH 7.2, containing no carbon source (the negative control);
(§8) b) the same medium as the negative control except that it contained 0.5% bromosuccinic acid; and
(§9) c) an undefined medium Trypticase soy yeast extract medium, buffered with 50 mM Hepes, pH 7.2 (the positive control).
(§10) Twenty microliters of each prepared organism was added to duplicate wells of each type of media.
(§11) The wells were sealed with cork stoppers and the plate was incubated at 37° C. Color changes of the sensor on the bottom of the plate were monitored by eye over a 6 hour period. After approximately 4 hours, two distinct patterns could be seen. […] The positive control wells for E. coli changed from purple to green to yellow to orange, indicating a pH change of the sensor from 10 to approximately 6. The positive control well for P. aeruginosa changed from purple to green to yellow (a pH change of the sensor from 10 to approximately 7). The wells with the bromosuccinic acid medium gave the most distinction between the two organisms. […]

[6] = system: Pseudomonas aeruginosa (ATCC number 1014); assay: as above; conditions: 0.5% bromosuccinic acid
Experimental: as §4, §5, §6, §7, §8, §9, §10, §11

[7] = system: Proteus mirabilis 33583; assay: Pattern of inhibition using silicone-emulsion CO2 sensors (Table 3); conditions: 5.4 mcg; 4 h, 37° C.; 5×10^7 CFU/ml
From the text: (§12) Microbial identification using the described CO2 sensors can also be based on the principle of growth inhibition. This system differs from the classical biochemical identification systems, as identification is based on selective growth inhibition by inhibitory agents, such as dyes, antibiotics, and other substances. Once again, the production of CO2 is the measure of growth. The growth pattern produced in the presence of these inhibitory agents identifies the species of the test microorganism. The amount of growth is compared with a growth control well that contains no inhibitor. A profile is derived using a two-stage quadratic discriminate analysis based on the results derived from the battery of inhibitory agents.
(§13) Microtiter plates (96 flat bottom wells) containing 0.05% xylenol blue silicone-emulsion sensors were filled with 100 microliters of microbial growth medium containing no inhibitors (growth control wells) and eighteen different dyes, antibiotics, and other inhibitory substances. Final concentrations of the inhibitors were achieved after addition of 100 microliters of inoculum (final inoculum of 5×10^7 CFU/ml) of the representative microorganisms.
as §2

[8] = system: Pseudomonas aeruginosa 33584; assay: as above; conditions: 5.4 mcg; 4 h, 37° C.; 5×10^7 CFU/ml
From the text: as §12, §13, §2

[9] = system: Escherichia coli 33582; assay: as above; conditions: 5.4 mcg; 4 h, 37° C.; 5×10^7 CFU/ml
From the text: as §12, §13, §2

[10] = system: Alcaligenes odorans 33585; assay: as above; conditions: 5.4 mcg; 4 h, 37° C.; 5×10^7 CFU/ml
From the text: as §12, §13, §2

[11] = 0.2 units, 4 h, 37° C., 5×10^7 CFU/ml
[12] = Escherichia coli, 29194, 4 h, read-out: Percent growth as compared to a growth control without antibiotics
[13] = Enterococcus faecalis, 29212, 4 h, read-out: Percent growth as compared to a growth control without antibiotics
[14] = Pseudomonas aeruginosa, 27853, 4 h, read-out: Percent growth as compared to a growth control without antibiotics
[15] = Staphylococcus aureus, 25923, 4 h, read-out: Percent growth as compared to a growth control without antibiotics

COc1cccc(OC)c1C(=O)N[C@@H]1C(=O)N2[C@@H]1SC(C)(C)[C@@H]2C(=O)O [Methicillin]
activity at 5 µg/mL ([1]; Escherichia coli, 29194, 5 mcg (per milliliter), 4 h, 37° C., 5×10^7 CFU/ml, read-out: Percent growth as compared to a growth control without antibiotics): 111% | activity at 5 µg/mL ([2]; Enterococcus faecalis, 29212, 5 mcg (per milliliter), 4 h, 37° C., 5×10^7 CFU/ml, read-out: Percent growth as compared to a growth control without antibiotics): 116% | activity at 5 µg/mL ([3]; Pseudomonas aeruginosa, 27853, 5 mcg (per milliliter), 4 h, 37° C., 5×10^7 CFU/ml, read-out: Percent growth as compared to a growth control without antibiotics): 146% | activity at 5 µg/mL ([4]; Staphylococcus aureus, 25923, 5 mcg (per milliliter), 4 h, 37° C., 5×10^7 CFU/ml, read-out: Percent growth as compared to a growth control without antibiotics): 16%

CC1(C)S[C@@H]2[C@H](NC(=O)Cc3ccccc3)C(=O)N2[C@H]1C(=O)O [Penicillin G]
Percent growth as compared to a growth control without antibiotics [1, 11]: 103% | Percent growth as compared to a growth control without antibiotics [2, 11]: 108% | Percent growth as compared to a growth control without antibiotics [3, 11]: 149% | Percent growth as compared to a growth control without antibiotics [4, 11]: 45%

O=C1CN(/N=C/c2ccc([N+](=O)[O-])o2)C(=O)N1 [Nitrofurantoin]
activity at 15 µg/mL ([1]; Escherichia coli, 29194, 15 mcg (per milliliter), 4 h, 37° C., 5×10^7 CFU/ml, read-out: Percent growth as compared to a growth control without antibiotics): 14% | activity at 15 µg/mL ([2]; Enterococcus faecalis, 29212, 15 mcg (per milliliter), 4 h, 37° C., 5×10^7 CFU/ml, read-out: Percent growth as compared to a growth control without antibiotics): 110% | activity at 15 µg/mL ([3]; Pseudomonas aeruginosa, 27853, 15 mcg (per milliliter), 4 h, 37° C., 5×10^7 CFU/ml, read-out: Percent growth as compared to a growth control without antibiotics): 112% | activity at 15 µg/mL ([4]; Staphylococcus aureus, 25923, 15 mcg (per milliliter), 4 h, 37° C., 5×10^7 CFU/ml, read-out: Percent growth as compared to a growth control without antibiotics): 33%

CCn1cc(C(=O)O)c(=O)c2ccc(C)nc21 [Nalidixic acid]
activity at 15 µg/mL [1, 12]: 18% | activity at 15 µg/mL [2, 13]: 116% | activity at 15 µg/mL [3, 14]: 109% | activity at 15 µg/mL [4, 15]: 80%

O=C(O)CC(Br)C(=O)O (stereo not shown) [bromosuccinic acid]
Utilization as carbon source to produce CO2 [5]: able to utilize this carbon source only slightly to produce CO2 | pH of the sensor reached (change from 10) ([5]; four hours, 37° C., by eye): 8.5 pH | Utilization as carbon source to produce CO2 [6]: preferred carbon source | pH of the sensor reached (change from 10) ([6]; four hours, 37° C., by eye): approximately 6 pH

CN(C)C1C(=O)C(C(N)=O)=C(O)C2(O)C(=O)C3=C(O)c4c(O)cccc4C(C)(O)C3CC12 (stereo not shown) [Tetracycline]
activity at 0.5 µg/mL [1, 12]: 76% | activity at 0.5 µg/mL [2, 13]: 109% | activity at 0.5 µg/mL [3, 14]: 120% | activity at 0.5 µg/mL [4, 15]: 15%

CN[C@H](CC(C)C)C(=O)N[C@H]1C(=O)N[C@@H](CC(N)=O)C(=O)N[C@H]2C(=O)N[C@H]3C(=O)N[C@H](C(=O)N[C@H](C(=O)O)c4cc(O)cc(O)c4-c4cc3ccc4O)[C@H](O)c3ccc(c(Cl)c3)Oc3cc2cc(c3O[C@@H]2O[C@H](CO)[C@@H](O)[C@H](O)[C@H]2O[C@H]2C[C@](C)(N)[C@H](O)[C@H](C)O2)Oc2ccc(cc2Cl)[C@H]1O [Vancomycin]
activity at 10 µg/mL [1, 12]: 94% | activity at 10 µg/mL [2, 13]: 15% | activity at 10 µg/mL [3, 14]: 106% | activity at 10 µg/mL [4, 15]: 22%

O=C(N[C@H](CO)[C@H](O)c1ccc([N+](=O)[O-])cc1)C(Cl)Cl [Chloramphenicol]
activity at 4 µg/mL ([1]; Escherichia coli, 29194, 4 mcg (per milliliter), 4 h, 37° C., 5×10^7 CFU/ml, read-out: Percent growth as compared to a growth control without antibiotics): 14% | activity at 4 µg/mL [2, 13]: 19% | activity at 4 µg/mL [3, 14]: 88% | activity at 4 µg/mL [4, 15]: 45%

NC[C@H]1O[C@H](O[C@H]2[C@H](O)[C@@H](O[C@H]3O[C@H](CO)[C@@H](O)[C@H](N)[C@H]3O)[C@H](N)C[C@@H]2N)[C@H](O)[C@@H](O)[C@@H]1O [Kanamycin]
Percent growth as compared to a growth control without antibiotics [7]: 44% | Percent growth as compared to a growth control without antibiotics [8]: 105% | Percent growth as compared to a growth control without antibiotics [9]: 66% | Percent growth as compared to a growth control without antibiotics [10]: 95% | activity at 22 µg/mL [1, 12]: 91% | activity at 22 µg/mL [2, 13]: 95% | activity at 22 µg/mL [3, 14]: 72% | activity at 22 µg/mL [4, 15]: 13%
